{
  "source": "patent EP4782437A1",
  "about": "“HETEROARYL COMPOUND, AND PREPARATION METHOD THEREFOR AND USE THEREOF IN MEDICINE” (Jiangsu Hengrui Pharmaceuticals Co., Ltd., priority 2023, dated 2025)",
  "key": {"hERG potassium channels": {"target": "hERG potassium channels (Homo sapiens, UniProt Q12809)", "sequence (Q12809 whole entry)": "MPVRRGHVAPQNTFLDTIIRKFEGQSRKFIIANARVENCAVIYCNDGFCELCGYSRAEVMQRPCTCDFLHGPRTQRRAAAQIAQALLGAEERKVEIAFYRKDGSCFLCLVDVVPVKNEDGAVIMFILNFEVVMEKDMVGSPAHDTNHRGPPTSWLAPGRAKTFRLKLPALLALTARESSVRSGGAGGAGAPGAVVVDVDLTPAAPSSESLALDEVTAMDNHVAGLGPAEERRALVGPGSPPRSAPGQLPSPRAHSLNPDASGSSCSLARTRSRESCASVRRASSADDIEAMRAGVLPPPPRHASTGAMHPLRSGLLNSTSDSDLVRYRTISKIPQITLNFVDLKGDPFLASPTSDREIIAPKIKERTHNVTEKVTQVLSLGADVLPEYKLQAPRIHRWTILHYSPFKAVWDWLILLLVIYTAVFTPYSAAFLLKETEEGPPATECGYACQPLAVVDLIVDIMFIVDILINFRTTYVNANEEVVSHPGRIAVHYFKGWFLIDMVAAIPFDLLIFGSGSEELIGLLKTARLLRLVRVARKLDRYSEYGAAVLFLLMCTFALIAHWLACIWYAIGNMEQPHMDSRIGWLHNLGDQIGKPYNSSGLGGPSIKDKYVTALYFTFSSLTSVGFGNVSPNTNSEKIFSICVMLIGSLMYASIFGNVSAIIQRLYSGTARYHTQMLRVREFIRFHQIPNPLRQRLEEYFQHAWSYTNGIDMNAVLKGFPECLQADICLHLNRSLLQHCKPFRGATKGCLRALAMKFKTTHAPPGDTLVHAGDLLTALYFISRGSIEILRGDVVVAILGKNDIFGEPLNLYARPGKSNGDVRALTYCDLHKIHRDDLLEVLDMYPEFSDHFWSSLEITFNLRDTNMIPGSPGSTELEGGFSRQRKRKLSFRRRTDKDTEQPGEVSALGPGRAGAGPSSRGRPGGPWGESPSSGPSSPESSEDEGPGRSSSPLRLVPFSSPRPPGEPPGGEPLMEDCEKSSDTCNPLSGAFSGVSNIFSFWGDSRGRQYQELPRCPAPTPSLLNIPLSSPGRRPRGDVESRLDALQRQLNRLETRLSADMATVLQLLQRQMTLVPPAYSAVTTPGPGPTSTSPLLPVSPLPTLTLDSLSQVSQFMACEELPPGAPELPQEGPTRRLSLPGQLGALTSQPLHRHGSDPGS", "assay": "in vitro"}, "[1]": {"system": "B cell activation in human whole blood", "assay": "Inhibition of B cell activation in human whole blood (CD69 expression, flow cytometry)", "assay_type": "cell-based", "conditions": "anti-human IgD 30 µg/ml + IL-4 5 ng/ml, 18 hours, CD69-positive CD19-positive B cells, read-out: IC50 values of inhibitory activity against B cell activation in human whole blood", "text": "Test example 2: Inhibitory activity of compounds of the present disclosure against B cell activation in human whole blood • I. Experimental materials and instruments • 1. Human whole blood (internal recruitment) • 2. Goat F(ab')2 anti-human IgD-UNLB (SouthernBiotech, 2032-01) • 3. DPBS (1x) (Gibco, 14190-144) • 4. Recombinant human IL-4 (Peprotech, 200-04) • 5. Brilliant Violet 421™ anti-human CD19 antibody (Biolegend, 302234) • 6. APC anti-human CD69 antibody (Biolegend, 310910) • 7. APC mouse IgG1, κ isotype control antibody (Biolegend, 400120) • 8. eBioscience™ 10X RBC lysis buffer (multi-species) (Thermo, 004300-54) • 9. NEST 96-well deep-well plate (Wuxi NEST Biotechnology Co., Ltd., 503501) • 10. 96-well round-bottom plate (Corning, 3788) • 11. 96-well flat-bottom plate (Corning, 3599) • 12. Attune™ NxT acoustic focusing cytometer (ThermoFisher Scientific, 4.2.0) • 13. Cell incubator (Thermo, Forma steri-cycle i160) • II. Experimental procedure\nB cells express the B cell receptor (BCR) complex on their surface. When B cells in human whole blood are induced to activate, they can trigger the downstream signalling pathways of the receptor and express the activation marker CD69. The expression of CD69 in activated B cells was detected by flow cytometry, and the IC50 of the compounds were calculated to evaluate the effects of the compounds on BCR activation.\nThe test compounds dissolved in 100% DMSO at 20 mM were diluted with 100% DMSO to a concentration of 1 mM, which represents the 200× concentration of the highest compound concentration point in the reaction system. The compounds at this concentration were then subjected to 8-point 4-fold serial dilution with 100% DMSO. The positive control wells were set with 100% DMSO, whereas the negative control wells were set with Remiburtinib at a final concentration of 5 µM. The serially diluted compounds and 100% DMSO were further diluted 10-fold in PBS to achieve the 20× concentration, followed by thorough mixing.\nAfter thorough mixing, the whole blood sample was transferred to a loading reservoir and then dispensed into a 96-well flat-bottom plate at 80 µl per well. The compound dilution was dispensed at 5 µl per well. The 11th column of each row was designated as the negative control well, with 5 µl of 100 µM positive control drug added to each well. After thorough mixing for 5 min, the plate was incubated in a 37°C incubator for 30 min. Human IgD antibody was diluted 1.67-fold with PBS to a concentration of 300 µg/mL, and 10 µl of the diluted solution was added to each well of the culture plate (final concentration: 30 µg/ml). Human IL-4 (stock solution at 50 µg/ml) was diluted 500-fold with PBS to a concentration of 100 ng/mL, and 5 µl of the diluted solution was added to each well of the culture plate (final concentration: 5 ng/ml). After thorough mixing for 5 min, the plate was cultured in a 37°C incubator with 5% CO2 for 18 hours.\nFlow cytometry detection: CD69-APC, CD19-BV421 and CD4-APC antibodies, and the isotype control antibodies for CD69-APC were removed from 4°C storage. Each antibody was added at 1 µl per well. After thorough mixing for 5 min, the plate was incubated for 30 min at 4°C (refrigerator) in the dark for staining. The 10X RBC lysis buffer was diluted in water to prepare 1X RBC lysis buffer. Aliquots of 1 ml of the lysis buffer were dispensed into each well of a 96-well deep-well plate in advance. The stained samples were transferred into the deep-well plate containing the lysis buffer for erythrocyte lysis. After completing the transfer of an entire plate, the plate was incubated in the dark for 15-20 min. Upon completion of lysis, the plate was centrifuged at 2000 rpm for 4 min. Each well was washed with 1 ml of PBS. Subsequently, the cells were resuspended in 200 µl of PBS, transferred to a 96-well plate, and washed twice more using the same procedure. The samples were resuspended in 200 µl of PBS per well and then subjected to flow cytometry detection. […]"}},
  "data": [
    {"compound": "C=CC(=O)N(C)CCOc1c(N)ncnc1-c1cc(F)cc(NC(=O)c2cc3c(cc2F)C2(CC2)CO3)c1C", "note": "[Example 3, N-(3-(6-amino-5-(2-(N-methacrylamido)ethoxy)pyrimidin-4-yl)-5-fluoro-2-methylphenyl)-5-fluoro-2H-spiro[benzofuran-3,1'-cyclopropane]-6-carboxamide]", "values": [
      {"measurement": "IC50", "setting": "hERG potassium channels", "result": "> 12300", "unit": "nM"},
      {"measurement": "IC50", "setting": "[1]", "result": "10 to 100", "unit": "nM"}
    ]}
  ]
}
